This passage reports IC50 results from BindingDB's records for doi:10.1021/acs.jmedchem.2c01800 (China Pharmaceutical University, 2023).

The target of test [1] is T1, Signal transducer and activator of transcription 3 (Homo sapiens, UniProt P40763). Briefly: Inhibition of IL-23 induced STAT3 phosphorylation in human KIT225 cells by AlphaLISA assay. On the technique in general: Bead proximity is the source of the signal in Alpha formats.
Test [2] concerns the target T1, Signal transducer and activator of transcription 3. Briefly: Inhibition of IL-23 induced STAT3 phosphorylation in human Jurkat cells incubated for 30 mins by microplate reader analysis.
The target is the same in test [3]. Briefly: Inhibition of IL-6 induced STAT3 phosphorylation in human TF-1 cells by AlphaLISA assay.

T1 sequence (P40763 whole entry): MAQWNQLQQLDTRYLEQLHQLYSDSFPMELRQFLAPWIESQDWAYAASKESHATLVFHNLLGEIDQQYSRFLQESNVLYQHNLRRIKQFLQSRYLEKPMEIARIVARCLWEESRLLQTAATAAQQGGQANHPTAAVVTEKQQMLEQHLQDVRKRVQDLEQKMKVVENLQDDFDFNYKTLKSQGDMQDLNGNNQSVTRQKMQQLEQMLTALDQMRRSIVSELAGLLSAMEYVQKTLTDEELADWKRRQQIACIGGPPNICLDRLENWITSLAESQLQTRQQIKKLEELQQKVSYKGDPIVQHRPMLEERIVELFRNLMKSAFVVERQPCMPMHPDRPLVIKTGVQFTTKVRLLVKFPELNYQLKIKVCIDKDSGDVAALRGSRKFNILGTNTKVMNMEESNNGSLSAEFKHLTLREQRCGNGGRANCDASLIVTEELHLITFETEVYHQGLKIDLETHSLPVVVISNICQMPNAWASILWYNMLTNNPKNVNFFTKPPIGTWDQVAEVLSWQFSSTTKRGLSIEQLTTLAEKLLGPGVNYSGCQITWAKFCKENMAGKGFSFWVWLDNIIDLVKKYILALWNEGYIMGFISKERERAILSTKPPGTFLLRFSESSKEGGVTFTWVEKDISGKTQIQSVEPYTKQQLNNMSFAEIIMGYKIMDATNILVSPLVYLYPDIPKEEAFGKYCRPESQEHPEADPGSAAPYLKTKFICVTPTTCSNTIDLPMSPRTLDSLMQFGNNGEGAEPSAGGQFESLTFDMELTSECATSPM

`CNc1cc(Nc2ccccc2OC)nc2c(C(=O)N[C@@H]3CCN(C)C3=O)cnn12` registered an IC50 in test [1] of 9 nM.

Compound `CNc1cc(Nc2cccn(-c3ccccn3)c2=O)nc2c(C(=O)N[C@@H]3CCN(C)C3=O)cnn12` gave a half-maximal inhibitory concentration (IC50) in test [1] of 65 nM.

For `CCOc1cccc(Nc2cc(NC)n3ncc(C(=O)N[C@@H]4CCN(C)C4=O)c3n2)n1`, it took 29 nM to reach half-maximal inhibition in test [1] (IC50). This IC50 is about 2.2-fold lower than that of the compound before.

For the compound `[2H]C([2H])([2H])NC(=O)c1nnc(Nc2ccc(N3CC(O)C3)cn2)cc1Nc1cccc(-c2ncn(C)n2)c1OC`, the IC50 in test [1] is 5.9 nM.

`[2H]C([2H])([2H])NC(=O)c1nnc(NC(=O)C2CC2)cc1Nc1cccc(-c2ncc(-c3cccnc3C(F)(F)F)cn2)c1OC` showed an IC50 in test [2] of 2.4 nM. That is a single-digit nanomolar value.

Take `CNC(=O)c1nnc(NC(=O)N2CCC2)cc1Nc1cccc(-c2ncn(C)n2)c1OC` [US11053219, Example 28]: the IC50 came to 28 nM in test [1] and 5900 nM in test [3].

What is called IC50 is the point on the concentration scale where inhibition reaches its midpoint.
